This is an account of results in PMC3989846 (Malaria Journal, 2014).

This data set can be described thus: Plasma pharmacokinetics after single intravenous or intragastric dose. The data set is classed as in vivo, male ICR mice. Conditions: for Cmax / AUC / AUC(0-t) / MRT / Tmax / bioavailability / clearance / Vd / half-life: ICR, mouse; for AUC: read-out: AUCinfininty; for bioavailability: intragastric 20 mg/kg vs intravenous 5 mg/kg, read-out: Absolute bioavailability; for Vd: read-out: Vz; for half-life: read-out: t1/2 elimination (converted). As for the experimental part:
PK studies were performed using both intravenous (IV) and intragastric (IG) administration. For each time point to be acquired, three male ICR mice per time-point, aged seven weeks, were dosed at either PQ or TQ at 5 mg/kg (IV) or 20 mg/kg (IG). Drug vehicle for IV studies was 0.9% saline solution, and the formulated drugs were administered in a volume of 100 μL/20 g of body weight. For IG dosing, the drug vehicle was 0.5% HECT, administered at 100 μL/20 g. At each time point, plasma and liver samples were collected. Whole blood was collected by cardiac puncture. […] Following the separation of appropriate aliquots, plasma was obtained from the whole blood via centrifugation. All liquid and tissue samples were immediately preserved on dry ice and lately stored at -80°C until analytical work was performed.
Sample was prepared by adding twice the normal volume of acetonitrile containing indomethacin internal standard (IS). The samples were mixed for 1 minute, centrifugation for 5 minutes, and the supernatant was transferred to an autosampler injection vial prior to separation by LC/MS/MS. Standard curve and quality control (QC) samples were generated by spiking interference free mouse plasma samples with known amounts of PQ, TQ and IS. Standard curve, QC, and assay samples were prepared and then 40 μL aliquots were injected into the LC/MS/MS system for chromatographic separation and subsequent mass spectrometric detection.
Chromatography was performed using a Surveyor pump (Thermo Scientific, Waltham, MA) with Waters XTerra MS C18 50 mm × 2.1 mm id, 3.5 μm particle size columns (Waters Corp., Milford, MA). Mobile phase consisted of a water/0.1% formic acid (Solvent A)/acetonitrile/0.1% formic acid (Solvent B) gradient. […] Flow rate was 300 μL/min. Samples were injected using an HTC PAL autosampler (LEAP Technologies, Carrboro, NC). Tandem mass spectrometry was performed using a TSQ Quantum AM (Thermo Scientific).
Drug concentrations were generated for each sample taken from animals dosed with both test drugs. A measured plasma and liver drug concentration vs. time curve was produced, in graphic and tabular form, for each subject on both linear/linear and log/linear scales, for the parent compound. Mean plasma drug concentration vs. time curves were also prepared separately. For the determination of initial approach to PK parameters of TQ and PQ in plasma and liver tissues after systemic application, a non-compartmental analysis was performed using Phoenix (version 6.1; Pharsight Corp., Mountain View, CA). Maximum plasma and liver concentration (Cmax), and time to maximum concentration (tmax) of TQ and PQ were obtained from the plasma and liver drug concentration-time curves. The elimination half-life (t1/2) was calculated from In2/kel, which is the elimination rate constant calculated from the log concentration-time plot. The area under the curve (AUC) and the area under the first moment curve (AUMC) were determined by the linear trapezoidal rule with extrapolation to infinity based on the concentration of the last time point divided by the terminal rate constant. Mean clearance rate (CL) was determined by dividing the dose by the AUCinf for intravenous injection for plasma samples. Absolute bioavailability was calculated by taking the dose-corrected area under the curve (AUC) from non-intravenous dosing divided by the AUC derived from intravenous dosing. Mean residence time (MRT) was determined by dividing the area under the first moment curve (AUMC) by AUC. The volume of the central compartment (Vz) and volume of the tissue compartment (Vz/F) were calculated as the product of CL and MRT.

The mark [1] stands for this setting: male, in vivo, po, intragastric 20 mg/kg, plasma.
The mark [2] stands for this setting: male, in vivo, intravenous 5 mg/kg, plasma.
The mark [3] stands for this setting: male, po, intragastric 20 mg/kg, plasma.
Setting [4] is: male, intravenous 5 mg/kg, plasma.

Like-named read-outs stand apart in the source and are kept apart here.

The term Cmax denotes the highest concentration seen after dosing. Broadly, the Vz is the apparent volume that relates the amount in the body to the concentration in plasma or blood. High values mean wide distribution into tissue, low ones little distribution into tissue. Usually AUC(0-t) stands for exposure summed from dosing to a finite time, without extrapolation to infinity. For orientation: MRT means a mean duration of stay, worked out from the concentration-time curve. What is called clearance is the volume of plasma or blood freed of the substance per unit of time. Consider `COc1cc(NC(C)CCCN)c2ncccc2c1` (centres unmarked) [Primaquine, primaquine], for which the Cmax is, setting by setting: (in vivo, intravenous 5 mg/kg, plasma, male mice) 1210 ± 210 ng/mL; under setting [1], 530 ± 70 ng/mL. Also, the Cl (intragastric 20 mg/kg, plasma) came to 965.7 ± 342 mL/min/kg. This molecule registered a Vz (intragastric 20 mg/kg, plasma) of 154.66 ± 61.83 L/kg. Moreover, under “intravenous 5 mg/kg, plasma, 5 mg/kg”, the AUCinfininty was 1260 ± 140 ng·h/mL. The AUC is, setting by setting: (male, in vivo, iv, 5 mg/kg, intravenous 5 mg/kg, plasma) 1200 ng·h/mL; (male, in vivo, po, 20 mg/kg, intragastric 20 mg/kg, plasma) 1310 ± 410 ng·h/mL. Moreover, the area under the curve AUC(0-t) reads like this: under setting [1], 1260 ± 400 ng·h/mL; under setting [2], 1200 ± 130 ng·h/mL. Besides, the MRT turned out to be 2.28 ± 0.1 h under setting [1] and 0.68 ± 0.02 h under setting [2]. Further, the Tmax is 0.5 h (male, in vivo, po, intragastric 20 mg/kg, plasma, read-out: Tmax); at most 0.0833 h (male, in vivo, absorbed from the gastrointestinal tract, mice, read-out: time to peak plasma levels); 0.08 h (male, in vivo, intravenous 5 mg/kg, plasma, read-out: Tmax). Further, the bioavailability (male, in vivo, plasma) came to 28.3 ± 6.93%. The molecule further had a clearance under setting [2] of 69.8 mL/min/kg. The Vd under setting [2] is 3.85 ± 0.71 L/kg.

In turn, `COc1cc(C)c2c(Oc3cccc(C(F)(F)F)c3)c(OC)cc(NC(C)CCCN)c2n1` (centres unmarked) [Tafenoquine, tafenoquine] came in with a Cmax (intravenous 5 mg/kg, plasma, male mice) of 660 ± 130 ng/mL. For the setting “intragastric 20 mg/kg, plasma”, this molecule showed a Cl of 2.5 ± 0.5 mL/min/kg and a volume of distribution (Vz) of 10.60 ± 1.22 L/kg. In addition, the bioavailability (male, oral, plasma) came out at 101 ± 37.5%. Moreover, under setting [3], the AUC(0-t) was determined as 138000 ± 24400 ng·h/mL, the highest level (Cmax) was 2040 ± 590 ng/mL, the mean residence time (MRT) amounted to 62.1 ± 2.3 h and the AUC was found to be 139000 ± 24900 ng·h/mL. In addition, under setting [3], the half-life is 50.9 ± 4.23 h. Also, under “male, po, intragastric 20 mg/kg, plasma, read-out: Tmax”, the Tmax turned out to be 11.3 ± 5.37 h. Under setting [4], the exposure AUC(0-t) came to 29600 ± 6740 ng·h/mL, the MRT was 55.9 ± 3.86 h, the clearance is 2.83 mL/min/kg and the AUC was determined as 30100 ± 6650 ng·h/mL. For the same molecule, under setting [4], the Vd came to 16.8 ± 6.44 L/kg and the half-life was 66.3 ± 10.3 h. Also, the Tmax (male, intravenous 5 mg/kg, plasma, read-out: Tmax) was 1.36 ± 1.11 h. Also, the “absolute bioavailability of oral TQ, fold greater than oral PQ” value (oral) came out at 3.5 fold. Further, for the setting “oral CL 0.15 L/hours/kg”, the “clearance as % of the hepatic blood flow” value is 3%. Also, for the setting “oral, plasma”, the “AUCinf of oral TQ, fold higher than oral PQ” value is on record as 94 fold; the “Cmax of oral TQ, fold higher than oral PQ” value is given as “approximately 4 fold”; the “elimination clearance of oral TQ, fold slower than oral PQ” value is on record as 370 fold. Under “oral, plasma, mice”, the “absorption rate of oral TQ, fold slower than PQ” value amounted to 22.7 fold. Moreover, for the setting “single 20 mg/kg dose”, the “duration of quantifiable concentrations” value is “more than two weeks”.
